This assay addresses T1, full-length MALT1 protein (Strep-MALT1(1-824)-His) (Homo sapiens, UniProt Q9UDY8).
T1 sequence (Q9UDY8 1-824): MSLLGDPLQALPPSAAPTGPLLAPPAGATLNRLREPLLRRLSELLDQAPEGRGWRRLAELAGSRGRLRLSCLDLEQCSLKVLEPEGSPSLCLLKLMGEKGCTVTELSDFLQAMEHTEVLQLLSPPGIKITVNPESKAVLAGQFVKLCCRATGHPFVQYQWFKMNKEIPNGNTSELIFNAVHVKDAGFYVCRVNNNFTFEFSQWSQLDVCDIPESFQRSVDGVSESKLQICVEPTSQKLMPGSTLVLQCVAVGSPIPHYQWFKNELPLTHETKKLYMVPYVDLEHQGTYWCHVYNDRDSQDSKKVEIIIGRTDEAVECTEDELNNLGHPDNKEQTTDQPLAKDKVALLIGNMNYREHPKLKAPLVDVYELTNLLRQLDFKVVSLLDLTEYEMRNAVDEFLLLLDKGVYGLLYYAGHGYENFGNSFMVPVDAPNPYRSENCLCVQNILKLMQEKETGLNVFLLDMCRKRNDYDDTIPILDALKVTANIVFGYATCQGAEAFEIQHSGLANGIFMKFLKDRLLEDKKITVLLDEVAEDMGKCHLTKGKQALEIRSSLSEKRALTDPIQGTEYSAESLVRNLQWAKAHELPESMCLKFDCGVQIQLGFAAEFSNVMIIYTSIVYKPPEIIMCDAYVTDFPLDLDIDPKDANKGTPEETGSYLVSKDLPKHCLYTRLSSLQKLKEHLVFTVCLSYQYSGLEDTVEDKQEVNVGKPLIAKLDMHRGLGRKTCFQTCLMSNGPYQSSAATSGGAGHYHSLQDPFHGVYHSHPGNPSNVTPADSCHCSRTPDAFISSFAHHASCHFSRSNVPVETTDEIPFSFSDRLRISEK
The assay is described as follows: biochemical.
As to `Cc1c(-n2ncc(C(=O)Nc3cnc(-n4nccn4)c(Cl)c3)c2C(F)(F)F)ccnc1Cl` [Cpd 155, 1-(2-chloro-3-methylpyridin-4-yl)-N-(5-chloro-6-(2H-1,2,3-triazol-2-yl)pyridin-3-yl)-5-(trifluoromethyl)-1H-pyrazole-4-carboxamide], the concentration for half-maximal inhibition (IC50) came to 257 nM.

In the case of `Cc1cnc(N2CC(O)C2)cc1-n1ncc(C(=O)Nc2cnc(-n3nccn3)c(Cl)c2)c1C(F)(F)F` [Cpd 156, N-(5-chloro-6-(2H-1,2,3-triazol-2-yl)pyridin-3-yl)-1-(2-(3-hydroxyazetidin-1-yl)-5-methylpyridin-4-yl)-5-(trifluoromethyl)-1H-pyrazole-4-carboxamide], the concentration for half-maximal inhibition (IC50) stood at 1290 nM.

Take `Cc1c(-n2ncc(C(=O)Nc3cnc(-n4nccn4)c(Cl)c3)c2C(F)(F)F)ccnc1N1CC(O)C1` [Cpd 157, N-(5-chloro-6-(2H-1,2,3-triazol-2-yl)pyridin-3-yl)-1-(2-(3-hydroxyazetidin-1-yl)-3-methylpyridin-4-yl)-5-(trifluoromethyl)-1H-pyrazole-4-carboxamide]: the 50% inhibitory concentration (IC50) is 8130 nM.

In the case of `Cc1ccnnc1-n1ncc(C(=O)Nc2cnc(-n3nccn3)c(Cl)c2)c1C(F)(F)F` [Cpd 159, N-(5-chloro-6-(2H-1,2,3-triazol-2-yl)pyridin-3-yl)-1-(4-methylpyridazin-3-yl)-5-(trifluoromethyl)-1H-pyrazole-4-carboxamide], the half-maximal inhibitory concentration (IC50) came out at 3160 nM.

In turn, `Cc1nc(-n2ncc(C(=O)Nc3cnc(-n4nccn4)c(Cl)c3)c2C(F)(F)F)ccc1F` [Cpd 161, N-(5-chloro-6-(2H-1,2,3-triazol-2-yl)pyridin-3-yl)-1-(5-fluoro-6-methylpyridin-2-yl)-5-(trifluoromethyl)-1H-pyrazole-4-carboxamide] registered an IC50 of 741 nM.

For the molecule `O=C(Nc1cnc(-n2nccn2)c(Cl)c1)c1cnn(-c2nc(Cl)ccc2Cl)c1C(F)(F)F` [Cpd 163, N-(5-chloro-6-(2H-1,2,3-triazol-2-yl)pyridin-3-yl)-1-(3,6-dichloropyridin-2-yl)-5-(trifluoromethyl)-1H-pyrazole-4-carboxamide], inhibition was half-maximal at 794 nM (IC50).

In turn, `N#Cc1cc(NC(=O)c2cnn(-c3nc(Cl)ccc3C(F)(F)F)c2C(F)(F)F)cnc1-n1nccn1` [Cpd 164, 1-(6-chloro-3-(trifluoromethyl)pyridin-2-yl)-N-(5-cyano-6-(2H-1,2,3-triazol-2-yl)pyridin-3-yl)-5-(trifluoromethyl)-1H-pyrazole-4-carboxamide] showed an IC50 of 1410 nM.

Take `O=C(Nc1cnc(-n2nccn2)c(Cl)c1)c1cnn(-c2nc(Cl)ccc2C(F)(F)F)c1C(F)(F)F` [Cpd 165, 1-(6-chloro-3-(trifluoromethyl)pyridin-2-yl)-N-(5-chloro-6-(2H-1,2,3-triazol-2-yl)pyridin-3-yl)-5-(trifluoromethyl)-1H-pyrazole-4-carboxamide]: the half-inhibitory concentration (IC50) is 2290 nM. This IC50 lies about 1.6-fold higher than the previous one.

Molecule `Cc1nc(-n2nccn2)c(Cl)cc1NC(=O)c1cnn(-c2ccc(C#N)c(N)n2)c1C(F)(F)F` [Cpd 178, 1-(6-amino-5-cyanopyridin-2-yl)-N-(5-chloro-2-methyl-6-(2H-1,2,3-triazol-2-yl)pyridin-3-yl)-5-(trifluoromethyl)-1H-pyrazole-4-carboxamide] displayed an IC50 of 200 nM.

`Cc1ccc(-n2ncc(C(=O)Nc3cnc(-n4nccn4)c(Cl)c3)c2C(F)(F)F)nc1N` [Cpd 184, 1-(6-amino-5-methylpyridin-2-yl)-N-(5-chloro-6-(2H-1,2,3-triazol-2-yl)pyridin-3-yl)-5-(trifluoromethyl)-1H-pyrazole-4-carboxamide] came in with an IC50 of 331 nM. Compared with the last molecule, the IC50 is about 1.7-fold higher.

As for `Cc1cc(F)c(N)nc1-n1ncc(C(=O)Nc2cc(C#N)c(-n3nccn3)nc2C)c1C(F)(F)F` [Cpd 186, 1-(6-amino-5-fluoro-3-methylpyridin-2-yl)-N-(5-cyano-2-methyl-6-(2H-1,2,3-triazol-2-yl)pyridin-3-yl)-5-(trifluoromethyl)-1H-pyrazole-4-carboxamide], half-maximal inhibition (IC50) required 339 nM.

In turn, `N#Cc1cc(NC(=O)c2cnn(-c3nc(N)ccc3C(F)(F)F)c2C(F)(F)F)cnc1-n1nccn1` [Cpd 187, 1-(6-amino-3-(trifluoromethyl)pyridin-2-yl)-N-(5-cyano-6-(2H-1,2,3-triazol-2-yl)pyridin-3-yl)-5-(trifluoromethyl)-1H-pyrazole-4-carboxamide] yielded an IC50 of 380 nM.

Molecule `Cc1cc(F)c(N)nc1-n1ncc(C(=O)Nc2cc(Cl)c(-n3nccn3)nc2C)c1C(F)(F)F` [Cpd 188, 1-(6-amino-5-fluoro-3-methylpyridin-2-yl)-N-(5-chloro-2-methyl-6-(2H-1,2,3-triazol-2-yl)pyridin-3-yl)-5-(trifluoromethyl)-1H-pyrazole-4-carboxamide] came in with an IC50 of 380 nM.

Regarding `CNc1cccc(-n2ncc(C(=O)Nc3cnc(-n4nccn4)c(C#N)c3)c2C(F)(F)F)n1` [Cpd 189, N-(5-cyano-6-(2H-1,2,3-triazol-2-yl)pyridin-3-yl)-1-(6-(methylamino)pyridin-2-yl)-5-(trifluoromethyl)-1H-pyrazole-4-carboxamide], inhibition was half-maximal at 437 nM (IC50).

Molecule `Cc1cc(N)ncc1-n1ncc(C(=O)Nc2cnc(-n3nccn3)c(C#N)c2)c1C(F)(F)F` [Cpd 190, 1-(6-amino-4-methylpyridin-3-yl)-N-(5-cyano-6-(2H-1,2,3-triazol-2-yl)pyridin-3-yl)-5-(trifluoromethyl)-1H-pyrazole-4-carboxamide] yielded an IC50 of 447 nM.

`Cc1cc(N)ncc1-n1ncc(C(=O)Nc2cnc(-n3nccn3)c(Cl)c2)c1C(F)(F)F` [Cpd 191, 1-(6-amino-4-methylpyridin-3-yl)-N-(5-chloro-6-(2H-1,2,3-triazol-2-yl)pyridin-3-yl)-5-(trifluoromethyl)-1H-pyrazole-4-carboxamide]: the IC50 worked out at 724 nM. Against the preceding molecule, the IC50 is about 1.6-fold higher.

As for `Nc1ccc(C(F)(F)F)c(-n2ncc(C(=O)Nc3cnc(-n4nccn4)c(Cl)c3)c2C(F)(F)F)n1` [Cpd 192, 1-(6-amino-3-(trifluoromethyl)pyridin-2-yl)-N-(5-chloro-6-(2H-1,2,3-triazol-2-yl)pyridin-3-yl)-5-(trifluoromethyl)-1H-pyrazole-4-carboxamide], inhibition was half-maximal at 1120 nM (IC50).

In turn, `N#Cc1cc(NC(=O)c2cnn(-c3ccc(N)nc3)c2C(F)(F)F)cnc1-n1nccn1` [Cpd 194, 1-(6-aminopyridin-3-yl)-N-(5-cyano-6-(2H-1,2,3-triazol-2-yl)pyridin-3-yl)-5-(trifluoromethyl)-1H-pyrazole-4-carboxamide] displayed a half-inhibitory concentration (IC50) of 1170 nM.

`Cc1nc(N)ccc1-n1ncc(C(=O)Nc2cnc(-n3nccn3)c(C#N)c2)c1C(F)(F)F` [Cpd 196, 1-(6-amino-2-methylpyridin-3-yl)-N-(5-cyano-6-(2H-1,2,3-triazol-2-yl)pyridin-3-yl)-5-(trifluoromethyl)-1H-pyrazole-4-carboxamide] showed a half-inhibitory concentration (IC50) of 1320 nM. The IC50 values of the last two molecules are within 1.5-fold of each other.

`Cc1ccc(-n2ncc(C(=O)Nc3cc(C#N)c(-n4nccn4)nc3C)c2C(F)(F)F)nc1N` [Cpd 197, 1-(6-amino-5-methylpyridin-2-yl)-N-(5-cyano-2-methyl-6-(2H-1,2,3-triazol-2-yl)pyridin-3-yl)-5-(trifluoromethyl)-1H-pyrazole-4-carboxamide] registered a half-inhibitory concentration (IC50) of 2510 nM.

Regarding `Cc1nc(-n2nccn2)c(Cl)cc1NC(=O)c1cnn(-c2ccc(C(N)=O)c(N)n2)c1C(F)(F)F` [Cpd 198, 2-amino-6-(4-((5-chloro-2-methyl-6-(2H-1,2,3-triazol-2-yl)pyridin-3-yl)carbamoyl)-5-(trifluoromethyl)-1H-pyrazol-1-yl)nicotinamide], the half-maximal inhibitory concentration (IC50) was determined as 3720 nM.
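Note: fluorogenic LRSR-AMC substrate cleavage by MALT1, 50 min compound preincubation then 4 h reaction at RT, 11-point dilution from 30 µM, scaled between enzyme-free and untreated enzyme controls.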
